Test results as given in patent publication US20060281771A1, “SYNERGISTIC MODULATION OF FLT3 KINASE USING AMINOQUINOLINE AND AMINOQUINAZOLINE KINASE MODULATORS” (priority 2005, published 2006).
pIC50: −log10 of the molar value.

Each compound was assayed on MV4-11 cells (assay: Inhibition of MV4-11 cell proliferation (CellTiterGlo, 72 h)). Details: Homo sapiens; 72 h growth inhibition.
Assay type: cell-based
Outline: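 MV4-11 (FLT3-ITD) cells, 10,000/well in RPMI/10% FBS with 1 ng/ml GM-CSF, treated 72 h at 37 °C; some runs in 1:1 medium/human plasma. Growth read as ATP luminescence; 100% inhibition = Day 0 RLU, 0% = DMSO at Day 3. IC50 from sigmoidal variable-slope fit of triplicates.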

Point of comparison: `COc1cc2ncnc(N3CCC(C(=O)Nc4ccc(C(C)C)cc4)CC3)c2cc1OC` [Compound 13, 1-(6,7-Dimethoxy-quinazolin-4-yl)-piperidine-4-carboxylic acid (4-isopropyl-phenyl)-amide], pIC50 6.07. Against it:
- COc1cc2ncnc(N3CCC(OC(=O)Nc4ccc(C(C)C)cc4)CC3)c2cc1OC [Compound 1, (4-Isopropyl-phenyl)-carbamic acid 1-(6,7-dimethoxy-quinazolin-4-yl)-piperidin-4-yl ester] — 0.67 log units higher, 6.74
- COc1cc2ncnc(N3CCC(OC(=O)Nc4ccc(C(C)C)cc4)C3)c2cc1OC (centres unmarked) [Compound 2, (4-Isopropyl-phenyl)-carbamic acid 1-(6,7-dimethoxy-quinazolin-4-yl)-pyrrolidin-3-yl ester] — 0.54 log units higher, 6.61
- COc1cc2ncnc(N3CCC(OC(=O)Nc4ccc(OC(C)C)cc4)CC3)c2cc1OC [Compound 3, (4-Isopropoxy-phenyl)-carbamic acid 1-(6,7-dimethoxy-quinazolin-4-yl)-piperidin-4-yl ester] — 0.26 log units higher, 6.33
- COc1cc2ncnc(N3CCCC(COC(=O)Nc4ccc(C(C)C)cc4)C3)c2cc1OC (centres unmarked) [Compound 4] — 1.00 log units higher, 7.07
- COc1cc2ncnc(N3CCC(CC(=O)Nc4ccc(C(C)C)cc4)CC3)c2cc1OC [Compound 5, 2-[1-(6,7-Dimethoxy-quinazolin-4-yl)-piperidin-4-yl]-N-(4-isopropyl-phenyl)-acetamide] — 2.08 log units higher, 8.15
- COc1cc2ncnc(N3CCC(CC(=O)Nc4ccc(C(C)C)cc4)C3)c2cc1OC (centres unmarked) [Compound 6, 2-[11-(6,7-Dimethoxy-quinazolin-4-yl)-pyrrolidin-3-yl]-N-(4-isopropyl-phenyl)-acetamide] — 2.03 log units higher, 8.10
- COc1cc2ncnc(N3CCC(NC(=O)Nc4ccc(C(C)C)cc4)C3)c2cc1OC (centres unmarked) [Compound 7, 1-[1-(6,7-Dimethoxy-quinazolin-4-yl)-pyrrolidin-3-yl]-3-(4-isopropyl-phenyl)-urea] — within 0.2 log units, 6.04
- COc1cc2ncnc(N3CCC(NC(=O)Nc4ccc(OC(C)C)cc4)C3)c2cc1OC (centres unmarked) [Compound 8, 1-[1-(6,7-Dimethoxy-quinazolin-4-yl)-pyrrolidin-3-yl]-3-(4-isopropoxy-phenyl)-urea] — 0.34 log units lower, 5.73
- COc1cc2ncnc(N3CCCC3COC(=O)Nc3ccc(C(C)C)cc3)c2cc1OC (centres unmarked) [Compound 9] — 0.64 log units higher, 6.71
- COc1cc2ncnc(N3CCC(OC(=O)Nc4ccc(OC5CCC5)nc4)C3)c2cc1OC (centres unmarked) [Compound 12, (6-Cyclobutoxy-pyridin-3-yl)-carbamic acid 1-(6,7-dimethoxy-quinazolin-4-yl)-pyrrolidin-3-yl ester] — 1.12 log units higher, 7.19
- CC(C)c1ccc(NC(=O)OC2CCN(c3ncnc4ccc(C#CCO)cc34)C2)cc1 (centres unmarked) [Compound 14, (4-Isopropyl-phenyl)-carbamic acid 1-[6-(3-hydroxy-prop-1-ynyl)-quinazolin-4-yl]-pyrrolidin-3-yl ester] — 0.80 log units higher, 6.87
- COc1cc2ncnc(N3CCC(OC(=O)Nc4ccc(OC(C)C)cc4)C3)c2cc1OC (centres unmarked) [Compound 15, (4-Isopropoxy-phenyl)-carbamic acid 1-(6,7-dimethoxy-quinazolin-4-yl)-pyrrolidin-3-yl ester] — within 0.2 log units, 6.06
- CC(C)c1ccc(NC(=O)NC2CCN(c3ncnc4ccccc34)C2)cc1 (centres unmarked) [Compound 16, 1-(4-Isopropyl-phenyl)-3-(1-quinazolin-4-yl-pyrrolidin-3-yl)urea] — 0.49 log units higher, 6.56
- CCN(CC)CC#Cc1ccc2ncnc(N3CCC(OC(=O)Nc4ccc(C(C)C)cc4)C3)c2c1 (centres unmarked) [Compound 17, (4-Isopropyl-phenyl)-3-carbamic acid 1-[6-(3-diethylamino-prop-1-ynyl)-quinazolin-4-yl]-pyrrolidin-3-yl ester] — 0.84 log units higher, 6.91
- COc1cc2ncnc(N3CCC(CNC(=O)Nc4ccc(C(C)C)cc4)CC3)c2cc1OC [Compound 18, 1-[1-(6,7-Dimethoxy-quinazolin-4-yl)-piperidin-4-ylmethyl]-3-(4-isopropyl-phenyl)-urea] — within 0.2 log units, 5.89
- COc1cc2ncnc(N3CCC(N(C)C(=O)Nc4ccc(C(C)C)cc4)C3)c2cc1OC (centres unmarked) [Compound 19, 1-[1-(6,7-Dimethoxy-quinazolin-4-yl)-pyrrolidin-3-yl]-3-(4-isopropyl-phenyl)-1-methyl-urea] — 0.21 log units lower, 5.86
- CC(C)c1ccc(NC(=O)OC2CCN(c3ncnc4ccc(I)cc34)C2)cc1 (centres unmarked) [Compound 20, (4-Isopropyl-phenyl)-carbamic acid 1-(6-iodo-quinazolin-4-yl)-pyrrolidin-3-yl ester] — 0.51 log units higher, 6.58
- COc1cc2ncnc(N3CCC(NC(=O)Cc4ccc(C(C)C)cc4)CC3)c2cc1OC [Compound 21, N-[1-(6,7-Dimethoxy-quinazolin-4-yl)-piperidin-4-yl]-2-(4-isopropyl-phenyl)-acetamide] — 1.04 log units higher, 7.11
- COc1cc2ncnc(N3CCC(C(=O)Nc4ccc(OC(C)C)cc4)CC3)c2cc1OC [Compound 23, 1-(6,7-Dimethoxy-quinazolin-4-yl)-piperidine-4-carboxylic acid (4-isopropoxy-phenyl)-amide] — 0.37 log units lower, 5.70
- COc1cc2ncc(C#N)c(N3CCC(NC(=O)Nc4ccc(C(C)C)cc4)C3)c2cc1OC (centres unmarked) [Compound 26, 1-[1-(3-Cyano-6,7-dimethoxy-quinolin-4-yl)-pyrrolidin-3-yl]-3-(4-isopropyl-phenyl)-urea] — 0.35 log units lower, 5.72
- COc1cc2ncnc(N3CCCC(NC(=O)Nc4ccc(C(C)C)cc4)C3)c2cc1OC (centres unmarked) [Compound 28, 1-[1-(6,7-Dimethoxy-quinazolin-4-yl)-piperidin-3-yl]-3-(4-isopropyl-phenyl)-urea] — 0.25 log units lower, 5.82
- COc1cc2ncc(C#N)c(N3CCC(NC(=O)Nc4ccc(OC(C)C)cc4)C3)c2cc1OC (centres unmarked) [Compound 29, 1-[1-(3-Cyano-6,7-dimethoxy-quinolin-4-yl)-pyrrolidin-3-yl]-3-(4-isopropoxy-phenyl)-urea] — 0.30 log units lower, 5.77
- COc1cc2ncnc(N3CCCC(OC(=O)Nc4ccc(C(C)C)cc4)C3)c2cc1OC (centres unmarked) [Compound 31, (4-Isopropyl-phenyl)-carbamic acid 1-[1-(6,7-dimethoxy-quinazolin-4-yl)-piperidin-3-yl]ester] — 0.30 log units lower, 5.77
- COc1cc2ncc(C#N)c(N3CCC(OC(=O)Nc4ccc(OC(C)C)cc4)C3)c2cc1OC (centres unmarked) [Compound 32, (4-Isopropoxy-phenyl)-carbamic acid 1-(3-cyano-6,7-dimethoxy-quinolin-4-yl)-pyrrolidin-3-yl ester] — 0.22 log units lower, 5.85
- COc1cc2ncnc(N3CCCCC3COC(=O)Nc3ccc(C(C)C)cc3)c2cc1OC (centres unmarked) [Compound 33, (4-Isopropyl-phenyl)-carbamic acid 1-(6,7-dimethoxy-quinazolin-4-yl)-piperidin-2-ylmethyl ester] — 0.39 log units higher, 6.46
- COc1cc2ncnc(N3CCC(NC(=O)Cc4ccc(C(C)C)cc4)C3)c2cc1OC (centres unmarked) [Compound 35, N-[1-(6,7-Dimethoxy-quinazolin-4-yl)-pyrrolidin-3-yl]-2-(4-isopropyl-phenyl)-acetamide] — 0.35 log units lower, 5.72
- COc1cc2ncnc(N3CCC(N(C)C(=O)Nc4ccc(OC(C)C)cc4)C3)c2cc1OC (centres unmarked) [Compound 36, 1-[1-(6,7-Dimethoxy-quinazolin-4-yl)-pyrrolidin-3-yl]-3-(4-isopropoxy-phenyl)-1-methyl-urea] — 0.57 log units lower, 5.50
- COc1cc2ncc(C#N)c(N3CCC(OC(=O)Nc4ccc(C(C)C)cc4)C3)c2cc1OC (centres unmarked) [Compound 37, (4-Isopropyl-phenyl)-carbamic acid 1-(3-cyano-6,7-dimethoxy-quinolin-4-yl)-pyrrolidin-3-yl ester] — 0.25 log units lower, 5.82
